Results on 13 molecules are retold here after US6355615B1, “Desoxycyclodepsipeptides and their use for combatting endoparasites” (Bayer Aktiengesellschaft, priority 1997, dated 2002).

In the first data set the test system is Haemonchus contortus. Put plainly: Haemonchus contortus/sheep: nematode egg count in feces before and after oral treatment. Format: in vivo. The note with it: Haemonchus contortus, po, read-out: effective dose (Dosis effectiva). How it is done:
Haemonchus contortus/sheep
Sheep experimentally infected with Haemonchus contortus were treated after expiry of the prepatency time of the parasite.
The active compounds were administered orally in gelatin capsules as pure active ingredient.
The efficacy is determined by quantitatively counting the nematode eggs excreted with the feces before and after treatment.
Complete cessation of oviposition after treatment means that the nematodes have been expelled or are so damaged that they no longer produce eggs (Dosis effectiva).
On to `CC(C)C[C@H]1C(=O)O[C@H](Cc2ccccc2)C(=O)N(C)[C@@H](CC(C)C)C(=O)O[C@H](C)CN(C)[C@@H](CC(C)C)C(=O)O[C@H](Cc2ccccc2)C(=O)N(C)[C@@H](CC(C)C)C(=O)O[C@H](C)CN1C` [Example 1-b, 8,20-dibenzyl-5,11,17,23-tetraisobutyl-2,4,10,14,16,22-hexamethyl-1,7,13,19-tetraoxa-4,10,16,22-tetraaza-cyclotetracosan-6,9,12,18,21,24-hexaone], for which the minimal effective dose is below 1 mg/kg. Same read-out and setting: as for `CC(C)C[C@H]1C(=O)O[C@H](Cc2ccccc2)CN(C)[C@@H](CC(C)C)C(=O)O[C@H](C)CN(C)[C@@H](CC(C)C)C(=O)O[C@H](Cc2ccccc2)CN(C)[C@@H](CC(C)C)C(=O)O[C@H](C)CN1C` [Example 2, 8,20-dibenzyl-5,11,17,23-tetraisobutyl-2,4,10,14,16,22-hexamethyl-1,7,13,19-tetraoxa-4,10,16,22-tetraazacyclotetracosan-6,12,18,24-tetraone], the figure is below 1 mg/kg. In the case of `CC(C)C[C@H]1C(=O)O[C@H](Cc2ccc(N3CCOCC3)cc2)C(=O)N(C)[C@@H](CC(C)C)C(=O)O[C@H](C)CN(C)[C@@H](CC(C)C)C(=O)O[C@H](Cc2ccccc2N2CCOCC2)C(=O)N(C)[C@@H](CC(C)C)C(=O)O[C@H](C)CN1C` [Example 6, 5,11,17,23-tetraisobutyl-2,4,10,14,16,22-hexamethyl-8-[-4-(N-morpholinyl)benzyl]-20-[2-(N-morpholinyl)benzyl]-1,7,13,19-tetraoxa-4,10,16,22-tetraaza-cyclotetracosan-6,9,12,18,21,24-hexaone], the minimal effective dose is below 1 mg/kg. `CC(C)C[C@H]1C(=O)O[C@H](Cc2ccc(-n3cccc3)cc2)C(=O)N(C)[C@@H](CC(C)C)C(=O)O[C@H](C)CN(C)[C@@H](CC(C)C)C(=O)O[C@H](Cc2ccc(-n3cccc3)cc2)C(=O)N(C)[C@@H](CC(C)C)C(=O)O[C@H](C)CN1C` [Example 14, 8,20-bis-[4-(1-pyrrolyl)-benzyl]-5,11,17,23-tetraisobutyl-2,4,10,14,16,22-hexamethyl-1,7,13,19-tetraoxa-4,10,16,22-tetraaza-cyclotetracosan-6,9,12,18,21,24-hexaone]: the minimal effective dose is below 1 mg/kg. For the molecule `COCCN(CCOC)c1ccc(CC2OC(=O)C(CC(C)C)N(C)CC(C)OC(=O)C(CC(C)C)N(C)C(=O)C(Cc3ccc(N(CCOC)CCOC)cc3)OC(=O)C(CC(C)C)N(C)CC(C)OC(=O)C(CC(C)C)N(C)C2=O)cc1` (stereo not drawn) [Example 16-c, 8,20-bis-[4-bis-(β-methoxyethyl)aminobenzyl)-5,11,17,23-tetraisobutyl-2,4,10,14,16,22-hexamethyl-1,7,13,19-tetraoxa-4,10,16,22-tetraazacyclotetracosan-6,9,12,18,21,24-hexaone], the minimal effective dose was below 1 mg/kg.

`CC(C)C[C@H]1C(=O)O[C@H](Cc2ccc(NCc3ccco3)cc2)C(=O)N(C)[C@@H](CC(C)C)C(=O)O[C@H](C)CN(C)[C@@H](CC(C)C)C(=O)O[C@H](Cc2ccc(NCc3ccco3)cc2)C(=O)N(C)[C@@H](CC(C)C)C(=O)O[C@H](C)CN1C` [Example 19, 8,20-bis-N-[4-(2-furylmethylanino)benzyl]-5,11,17,23-tetraisobutyl-2,4,10,14,16,22-hexamethyl-1,7,13,19-tetraoxa-4,10,16,22-tetraaza-cyclotetracosan-6,9,12,18,21,24-hexaone]: the minimal effective dose is below 1 mg/kg. As for `CC(=O)N1CCN(S(=O)(=O)c2ccc(CC3OC(=O)C(CC(C)C)N(C)CC(C)OC(=O)C(CC(C)C)N(C)C(=O)C(Cc4ccc(S(=O)(=O)O)cc4)OC(=O)C(CC(C)C)N(C)CC(C)OC(=O)C(CC(C)C)N(C)C3=O)cc2)CC1` (centres unmarked) [Example 21-b, 8-[4-(4-acetylpiperazin-1-yl)-sulfonyl-benzyl]-20-(4-sulfobenzyl)-5,11,17,23-tetraisobutyl-2,4,10,14,16,22-hexamethyl-1,7,13,19-tetraoxa-4,10,16,22-tetraaza-cyclotetracosan-6,9,12,18,21,24-hexaone], the minimal effective dose amounted to 1 mg/kg.

The same data set, now with this note: sheep experimentally infected with Haemonchus contortus; oral, gelatin capsules, pure active ingredient; complete cessation of oviposition after treatment.
In the case of `COCCNc1ccc(CC2OC(=O)C(CC(C)C)N(C)C(=O)C(C)OC(=O)C(CC(C)C)N(C)C(=O)C(Cc3ccc(N(CCOC)CCOC)cc3)OC(=O)C(CC(C)C)N(C)CC(C)OC(=O)C(CC(C)C)N(C)C2=O)cc1` (stereo not drawn) [Example 17-a, 8(or 20)-[4-bis-(β-methoxyethyl)aminobenzyl]-20(or 8)-(4-β-methoxyethylaminobenzyl)-5,11,17,23-tetraisobutyl-2,4,10,14,16,22-hexamethyl-1,7,13,19-tetraoxa-4,10,16,22-tetraaza-cyclotetracosan-6,9,12,15,18,21,24-heptaone], the “effective dose (Dosis effectiva)” value was below 1 mg/kg.

The data set is the same for the next values; noted with them: sheep experimentally infected with Haemonchus contortus; oral, gelatin capsules, pure active ingredient; complete cessation of oviposition after treatment; read-out: effective dose (Dosis effectiva).
On to `CC(C)C[C@H]1C(=O)O[C@H](Cc2ccc(N3CCOCC3)cc2)C(=O)N(C)[C@@H](CC(C)C)C(=O)O[C@H](C)CN(C)[C@@H](CC(C)C)C(=O)O[C@H](Cc2ccc(N3CCOCC3)cc2)C(=O)N(C)[C@@H](CC(C)C)C(=O)O[C@H](C)CN1C` [Example 5, 5,11,17,23-tetraisobutyl-2,4,10,14,16,22-hexamethyl-8,20-bis-[4-(N-morpholinyl)benzyl]-1,7,13,19-tetraoxa-4,10,16,22-tetraaza-cyclotetracosan-6,9,12,18,21,24-hexaone], for which the minimal effective dose was below 1 mg/kg. The same measure, in the same setting: the result for `CC(C)CC1C(=O)OC(C)CN(C)C(CC(C)C)C(=O)OC(Cc2ccc(N3CCOCC3)cc2)C(=O)N(C)C(CC(C)C)C(=O)OC(C)CN(C)C(CC(C)C)C(=O)OC(Cc2ccc(N3CCOCC3)cc2)CN1C` (centres unmarked) [Example 7-c, 5,11,17,23-tetraisobutyl-2,4,10,14,16,22-hexamethyl-8,20-bis-[4-(N-morpholinyl)benzyl]-1,7,13,19-tetraoxa-4,10,16,22-tetraaza-cyclotetracosan-6,9,12,18,24-pentaone] reads below 1 mg/kg; that for `CC(C)CC1C(=O)OC(C)CN(C)C(CC(C)C)C(=O)OC(Cc2ccc(N3CCOCC3)cc2)CN(C)C(CC(C)C)C(=O)OC(C)CN(C)C(CC(C)C)C(=O)OC(Cc2ccc(N3CCOCC3)cc2)CN1C` (centres unmarked) [Example 7-d, 5,11,17,23-tetraisobutyl-2,4,10,14,16,22-hexamethyl-8,20-bis-[4-(N-morpholinyl)benzyl]-1,7,13,19-tetraoxa-4,10,16,22-tetraaza-cyclotetracosan-6,12,18,24-tetraone], below 1 mg/kg. Still for that read-out and setting: as for `COCCNc1ccc(CC2OC(=O)C(CC(C)C)N(C)CC(C)OC(=O)C(CC(C)C)N(C)C(=O)C(Cc3ccc(NCCOC)cc3)OC(=O)C(CC(C)C)N(C)CC(C)OC(=O)C(CC(C)C)N(C)C2=O)cc1` (stereo not drawn) [Example 16-a, 8,20-bis-(4-β-methoxyethylaminobenzyl)-5,11,17,23-tetraisobutyl-2,4,10,14,16,22-hexamethyl-1,7,13,19-tetraoxa-4,10,16,22-tetraaza-cyclotetracosan-6,9,12,18,21,24-hexaone], the figure is below 1 mg/kg.

Tested on in another data set: not given
Assay: not given
Settings: not given
By melting point is commonly meant the temperature, or range, at which the solid turns liquid. As for `CC(C)C[C@H]1C(=O)O[C@H](Cc2ccc(OCc3ccco3)cc2)C(=O)N(C)[C@@H](CC(C)C)C(=O)O[C@H](C)CN(C)[C@@H](CC(C)C)C(=O)O[C@H](Cc2ccc(OCc3ccco3)cc2)C(=O)N(C)[C@@H](CC(C)C)C(=O)O[C@H](C)CN1C` (stereo in doubt), the melting point lay in the range of 116 to 119 °C. Still for that read-out and setting: the result for `CC(C)C[C@H]1C(=O)O[C@H](Cc2ccccc2)C(=O)N(C)[C@@H](CC(C)C)C(=O)O[C@H](C)CN(C)[C@@H](CC(C)C)C(=O)O[C@H](Cc2ccccc2)C(=O)N(C)[C@@H](CC(C)C)C(=O)O[C@H](C)CN1C` [Example 1-b, 8,20-dibenzyl-5,11,17,23-tetraisobutyl-2,4,10,14,16,22-hexamethyl-1,7,13,19-tetraoxa-4,10,16,22-tetraaza-cyclotetracosan-6,9,12,18,21,24-hexaone] reads 149 to 150 °C.
